In PubChem BioAssay AID179 (DTP/NCI, 2004) one finds EC50, IC50 and outcome data, which are given here for 65 molecules.

Values joined by “and” are separate entries in the source; they are usually repeats but may differ in a detail not shown here. Equal entries are not always repeated. Active and inactive are the calls of the source.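 Rule for the calls: active = compounds giving half or more protection of infected cells from virus-caused growth loss, again on retest; inactive = the rest.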

For this experiment, the system named is CEM cells HIV-1 protection, formazan growth assay. Briefly: NCI AIDS Antiviral Assay. The following applies: for IC50: measured here: growth of uninfected CEM cells. How it is done:
The ability of compounds to protect human CEM cells from HIV-1 infection is measured as a screen for new compounds capable of inhibiting the HIV virus. Five concentrations of drug were tested on uninfected and infected cells and cell growth was measured using a soluble formazan assay. […] Compounds that provided at least 50% protection were retested. Compounds that provided at least 50% protection on retest were listed as moderately active. Compounds that reproducibly provided 100% protection were listed as confirmed active. […] Note that the inability to provide protection could be due to toxicity.

Usually EC50 stands for the concentration giving half of the maximal effect. A word on the IC50: it is the concentration needed to halve the response being measured. High values mean lower potency, low ones higher potency. `NC1=N/N=C(c2ccccc2)\C=C/C(c2ccccc2)=N\1`: the EC50 is more than 19.1 µM and the IC50 is more than 19.1 µM. With `CCCCCCCCCCCCC/C=C/C(O)C(CO)NC(=O)CCCCC` (stereo unspecified), the outcome was inactive. `CC(=O)N1N=C(c2c(O)ccc3ccccc23)CC1C(=O)c1ccco1` (stereo unspecified): the EC50 is more than 200 µM and the IC50 is 35.5 µM. As to `CCN(CC)CCC(=O)c1ccc(Cl)c(Cl)c1`, the EC50 is more than 5010 µM and the IC50 is more than 5010 µM. In the case of `CC(C)C(=O)/C=C/c1ccc(Cl)cc1`, the outcome was inactive. Consider `CC[C@@]1(OC(=O)C(N)CCCCN)C(=O)OCc2c1cc1n(c2=O)Cc2cc3ccccc3nc2-1` (stereo partly specified), for which the EC50 is more than 10 µM and the IC50 turned out to be 0.0112 µM. With `Fc1ccc(C2SCc3nc4ccccc4n32)cc1Cl` (stereo unspecified), the EC50 is more than 72.4 µM and the IC50 was 25.7 µM. `O=C(O)CSc1n[nH]c(-c2ccc(O)cc2)n1`: the EC50 was more than 1000 µM and the IC50 was 977 µM.

Take `CC1(C)C(C(=O)O)C1C(=O)O` (stereo unspecified): the EC50 was more than 200 µM and the IC50 is more than 200 µM. For the molecule `CN(C)C(n1cc2c(c1)-c1ccc(Cl)cc1C(c1ccccc1F)=NC2)n1cc2c(c1)-c1ccc(Cl)cc1C(c1ccccc1F)=NC2`, the EC50 was more than 100 µM and the IC50 was 95.5 µM. In the case of `NC1=NN(c2ccccc2)C(=O)C1C(=O)C(=O)Nc1ccc(Cl)c(Cl)c1` (stereo unspecified), the EC50 is more than 331 µM and the IC50 was 234 µM. For `COC(=O)C1=C(C)N[C@@]2(C)[C@H](C(=O)OC)C[C@H]1C2(C(C)=O)C(C)=O`, in that order: more than 200 µM and more than 200 µM. As to `COC1/C=C/OC2(C)Oc3c(C)c(O)c4c(O)c(c(/C=N/OC/C=C(\C)CCC=C(C)C)c(O)c4c3C2=O)NC(=O)C(C)=C/C=C/C(C)C(O)C(C)C(O)C(C)C(OC(C)=O)C1C` (stereo unspecified), the EC50 was more than 200 µM and the half-inhibitory concentration (IC50) was found to be 4.47 µM. For `Cc1cccc(N=Nc2c(C)nn(C(=O)c3ccc(O)cc3)c2C)c1`, the outcome was inactive. On to `CC(C)(C)OC(=O)NC(Cc1ccc(OC(C)(C)C)cc1)C(=O)N[C@H]1CCC[C@H]1C(=O)NC(Cc1ccccc1)C(=O)N1CCCC1C(N)=O` (stereo partly specified), for which the EC50 is more than 100 µM and the IC50 is more than 100 µM. As for `COc1ccc2[nH]c3c(=O)[nH]ncc3c2c1`, the result was inactive. For the molecule `CC(C)=CCc1c(-c2ccc(O)cc2OC2OC(CO)C(O)C(O)C2O)oc2c3c(cc(O)c2c1=O)OC(C)(C)C=C3` (stereo unspecified), the EC50 is more than 58.9 µM and the IC50 was more than 58.9 µM. Take `COc1ccc2c(CCNC(=O)/C=C/c3ccccc3)c(C(C)=O)[nH]c2c1[N+](=O)[O-]`: the result was inactive. For `CC1NCCc2c1[nH]c1cc(O)ccc21` (stereo unspecified), the EC50 is more than 1050 µM and the IC50 came out at 158 µM. In the case of `COc1ccc([C@]23CCC4(OCC(C)(C)CO4)[C@H]4CON(O[C@H](O[C@@H]5CCCCC5C(C)(C)c5ccccc5)C2)[C@@H]43)cc1OC` (stereo partly specified), the EC50 was more than 50.1 µM and the IC50 was more than 50.1 µM. On to `CC1CN1c1c(C(=O)/C=C/c2ccc(Cl)cc2)c(-c2ccccc2)nn(C)c1=O` (stereo unspecified), for which the EC50 is more than 8.91 µM and the IC50 was more than 8.91 µM. Consider `Cc1nnc2sc(=S)[nH]n12`, for which the outcome was inactive. For `COC1=CC(=O)c2ccccc2C1(CCC=C(C)C)C1=NC(C)(C)CO1` (stereo unspecified), the outcome was inactive. Turning to `CC(=O)/C(=C/n1ccc(=O)[nH]c1=S)C(=O)Nc1ccc(Cl)cc1`, the EC50 was more than 200 µM and the 50% inhibitory concentration (IC50) was 155 µM.

With `C=C(C)C1CCC2=CC(CC3(C)OC3C3=CC(C(=O)OC)=C(C1)O3)OC2=O` (stereo unspecified), the EC50 was more than 47.9 µM and the IC50 is more than 47.9 µM.

Take `CC(NC(=O)C1CCCN1C(=O)OCc1ccccc1)C(=O)O` (stereo unspecified): the EC50 was more than 776 µM and the IC50 is more than 776 µM. With `S=C1c2ccc(Cl)cc2-n2cnnc2C2CSCN12` (stereo unspecified), the EC50 was more than 200 µM and the IC50 was more than 200 µM. Turning to `O=C(/C=C/c1c(O)c2ccccc2[nH]c1=O)CC(=O)C(=O)Nc1cccc(O)c1`, the EC50 was more than 174 µM and the IC50 is more than 174 µM. As to `CC1OC(OC2C(Oc3ccc4c(=O)c(-c5ccc(O)c(O)c5O)coc4c3)OC(CO)C(O)C2O)C(O)C(O)C1O` (stereo unspecified), the EC50 is more than 200 µM and the IC50 is 67.6 µM. For `CC(=O)C1C(=O)NC(=O)C1=O` (stereo unspecified), in that order: more than 1620 µM and more than 1620 µM. For `CCOC(=O)/C=C1\CCC(C)n2c1nccc2=O` (stereo unspecified), in that order: more than 200 µM and 110 µM. In the case of `C=CCOC(C)n1c(C)cc(=O)n(C(C)OCC=C)c1=O` (stereo unspecified), the EC50 was more than 200 µM and the IC50 is more than 200 µM. Take `NS(=O)(=O)c1ccc(NC(=S)/N=C/c2c(O)c3ccccc3oc2=O)cc1`: the EC50 was more than 200 µM and the IC50 worked out at 110 µM. Take `O=S1(=O)NNC(=NCc2ccc(Cl)c(Cl)c2)c2ccccc21`: the result was inactive. `CC(OCc1ccccc1)C(NC(=O)C1CSSCC(NC(=O)C(Cc2ccccc2)NC(=O)OCc2ccccc2)C(=O)NC(Cc2ccccc2)C(=O)NC(Cc2cn(C=O)c3ccccc23)C(=O)NC(CCCCNC(=O)OCc2ccccc2)C(=O)NC(C(C)OCc2ccccc2)C(=O)N1)C(N)=O` (stereo unspecified): the EC50 is more than 100 µM and the IC50 came out at 4.47 µM. For `Cn1cnc([N+](=O)[O-])c1Sc1ncccn1` the same measures were more than 1050 µM and 38 µM. For `CCN1CCC(O)(/C=C/c2ccc(OC)cc2)C(C(=O)/C=C/c2ccc(OC)cc2)C1` (stereo unspecified), in that order: more than 479 µM and more than 479 µM. For `CC(C)CCCC(C)[C@H]1CC[C@@H]2[C@H]3CC[C@H]4C[C@@H](CCC=C(c5cc(Cl)c(OCc6ccc(C(=O)O)cc6)c(C(=O)O)c5)c5cc(Cl)c(OCc6ccc(C(=O)O)cc6)c(C(=O)O)c5)CC[C@]4(C)[C@@H]3CC[C@]12C` (stereo partly specified), in that order: 4.17 µM and 112 µM. As to `COC(=O)c1ncc2c(=O)[nH]c3ccccc3c2c1C(=O)OC`, the EC50 was more than 16.6 µM and the IC50 was more than 16.6 µM.

For `CC(C)[Si](OC12CCC(CC1O)CC2C(=O)O)(C(C)C)C(C)C` (stereo unspecified), the EC50 was more than 200 µM and the IC50 came to 22.4 µM. As for `[N-]=[N+]=N/C1=C/CCCCC(=O)C1`, the result was inactive. As to `O=[N+]([O-])c1cnc(/C=[N+](\[O-])CCO)n1CCO`, the result was inactive.

In the case of `COC(=O)C1=C(C(=O)OC)C2(C3=C(C)C(=O)c4ccccc43)CCC1(C)O2` (stereo unspecified), the EC50 is more than 97.7 µM and the IC50 turned out to be 52.5 µM. On to `COC(O)C(=O)c1c2c(cc3c1CC1(Cc4cc5c(cc4C1)CCC5)C3)CCC2` (stereo unspecified), for which the EC50 is more than 200 µM and the IC50 was 33.1 µM.

For the molecule `Cc1cc(S(=O)(=O)Nc2n[nH]c(=O)n2-c2ccccc2)c(S)cc1Cl`, the EC50 is 155 µM and the IC50 is more than 200 µM. As to `COc1ccc(CN2CC(C)N(N=Cc3c4c(O)c5c(O)c(C)c6c(c5c3O)C(=O)C(C)(O/C=C/C(OC)C(C)C(OC(C)=O)C(C)C(O)C(C)C(O)C(C)/C=C/C=C(\C)C(=O)N4)O6)C(C)C2)cc1` (stereo unspecified), the EC50 was more than 200 µM and the IC50 worked out at 9.12 µM. On to `CN1C(=O)CSC1=S`, for which the EC50 was more than 1700 µM; the IC50 was 4.79 µM and 36.3 µM. Regarding `Cc1ccc(S(=O)(=O)N2c3ccccc3[C@H]3CCc4c([nH]c5ccccc45)[C@H]32)cc1`, the EC50 is 35.5 µM and the IC50 was more than 100 µM. For `CC1N=C(SCC(=O)c2ccc(Cl)cc2)N2C(C)N=C(SCC(=O)c3ccc(Cl)cc3)N12` (stereo unspecified), in that order: more than 19.5 µM and more than 19.5 µM. For `C=C1C2CCC3(CCC4C5(C)CCCC4(C=NC5)C3C2)C1O` (stereo unspecified), the result was inactive. On to `O=S(=O)(O)c1cccc(N=Nc2ccc(N=Nc3ccc(Nc4ccccc4)c4c(S(=O)(=O)O)cccc34)c3ccccc23)c1`, for which the EC50 is 155 µM and the IC50 was more than 200 µM. Regarding `COc1cc2c(cc1OC)C(CCl)c1cc(OC)c(OC)cc1C=C2`, the EC50 was more than 100 µM and the IC50 was more than 100 µM. Regarding `C/C=C(\CCCCN1C(=O)CCC1O)[Si](C)(C)C` (stereo unspecified), the outcome was inactive. Regarding `CC(C)c1ccc(C(c2ccc(OCC(=O)NCCN(C)C)cc2)c2ccc(C(C)C)cc(=O)c2O)c(O)c(=O)c1`, the result was inactive. With `Cc1ccc(S(=O)(=O)N/N=C2\CC3C4CCC3C2C4)cc1` (stereo unspecified), the EC50 was more than 200 µM and the IC50 was more than 200 µM. For the molecule `CC(C)(C)[Si](C)(C)OC[C@H]1O[C@@H](n2ccc(=O)[nH]c2=O)[C@H](O[Si](C)(C)C(C)(C)C)[C@]1(O)[C@H](N=[N+]=[N-])C(N)=O`, the EC50 was more than 200 µM and the IC50 was determined as 6.03 µM. Regarding `C/C(=C1/N=C(c2cc([N+](=O)[O-])ccc2Cl)N(c2ccc(Br)cc2)C1=O)c1cc2ccccc2oc1=O`, the EC50 was more than 24 µM.

Regarding `CCC12CCCN(Cc3ccccc3)C1c1c([nH]c3ccccc13)C(C(=O)OC)C2` (stereo unspecified), the EC50 is more than 30.9 µM and the IC50 is more than 30.9 µM. For the molecule `Cc1cc2c(c3[nH]c4ccccc4c13)C(=O)c1ccccc1C2=O`, the EC50 is more than 3.39 µM and the IC50 was more than 3.39 µM. `O=C1Nc2cnc(Cl)nc2Nc2ccccc21`: the EC50 is more than 75.9 µM and the IC50 was more than 75.9 µM. Turning to `COc1ncc(C#CC(=O)c2ccccc2)c(OC)n1`, the EC50 is more than 2 µM and the IC50 is 0.331 µM. With `C[N+]12CC3C(O)CC1CCC32` (stereo unspecified), the EC50 is more than 1320 µM and the IC50 is more than 1320 µM. For the molecule `N#C/C(=C\c1cccc(OCc2ccccc2)c1)c1ccc([N+](=O)[O-])cc1`, the EC50 was more than 200 µM and the IC50 stood at 151 µM. On to `O=c1[nH]c(Nc2nc3ccccc3[nH]2)nc2c1CCC2`, for which the EC50 is more than 200 µM and the IC50 was more than 200 µM. As for `COc1ccc(/C=C/C(=O)/C=C/c2ccc(OC)cc2OC)c(OC)c1`, the EC50 was more than 200 µM and the IC50 stood at 3.89 µM.
